According to ChEMBL document CHEMBL1148101, “Structure/activity relationship of some natural monoterpenes as acaricides against Psoroptes cuniculi” (1995):

What was measured:
Format in all cases: functional
Psoroptes ovis [1] = assay: Acaricidal activity against Psoroptes cuniculi at 0.125% dilution in physiological saline after 48 hrs by direct contact assay
Psoroptes ovis [2] = assay: Acaricidal activity against Psoroptes cuniculi at 1% dilution in physiological saline after 48 hrs by direct contact assay
Psoroptes ovis [3] = assay: Acaricidal activity against Psoroptes cuniculi at 1 uL after 24 hrs by inhalation assay
Psoroptes ovis [4] = assay: Acaricidal activity against Psoroptes cuniculi at 3 uL after 24 hrs by inhalation assay
Psoroptes ovis [5] = assay: Acaricidal activity against Psoroptes cuniculi at 6 uL after 24 hrs by inhalation assay
Psoroptes ovis [6] = assay: Acaricidal activity against Psoroptes cuniculi at 0.25% dilution in physiological saline after 48 hrs by direct contact assay
Psoroptes ovis [7] = assay: Acaricidal activity against Psoroptes cuniculi at 18 uL after 24 hrs by inhalation assay
Psoroptes ovis [8] = assay: Acaricidal activity against Psoroptes cuniculi at 36 uL after 24 hrs by inhalation assay

| SMILES | Activity (Psoroptes ovis [1]) | Activity (Psoroptes ovis [2]) | Activity (Psoroptes ovis [3]) | Activity (Psoroptes ovis [4]) | Activity (Psoroptes ovis [5]) | Activity (Psoroptes ovis [6]) | Activity (Psoroptes ovis [7]) | Activity (Psoroptes ovis [8]) |
| --- | --- | --- | --- | --- | --- | --- | --- | --- |
| C=CCc1ccc(O)c(OC)c1 [EUGENOL] | 100% | 100% | 86.7% | 96.7% | 100% | 100% |  |  |
| C=CC(=C)CCC=C(C)C [MYRCENE] | 0% | 0% | 0% | 5.2% | 6.7% | 0% |  |  |
| C=CC(C)(CCC=C(C)C)OC(C)=O (stereo not drawn) [LINALYL ACETATE] | 5% | 40% | 0% | 13.3% | 20% | 35% |  |  |
| C=CCc1ccc(OC)cc1 [ESTRAGOLE] | 0% | 100% | 0% | 6.7% | 5% | 63.3% |  |  |
| CC1=CCC(O)(C(C)C)CC1 (stereo not drawn) [TERPINEOL] | 100% | 100% | 5% | 41.7% | 100% | 100% |  |  |
| CC(C)=CCC/C(C)=C/CO [GERANIOL] | 100% | 100% | 95% | 93.3% | 96.7% | 100% |  |  |
| CC(C)=CCC/C(C)=C\CO [NEROL] | 100% | 100% | 36.7% | 83.3% | 100% | 98.3% |  |  |
| Cc1ccc(C(C)C)c(O)c1 [THYMOL] | 100% | 100% |  |  | 100% | 100% | 100% | 100% |
| C=CC(C)(O)CCC=C(C)C (stereo not drawn) [LINALOOL] | 97% | 100% | 36.7% | 75% | 100% | 100% |  |  |
| CC1CCC(C(C)C)C(O)C1 (stereo not drawn) [MENTHOL] | 100% | 100% |  |  | 100% | 100% | 100% | 100% |
| CC1=CCC(C(C)C)=CC1 [GAMMA-TERPINENE] | 0% | 0% | 0% | 0% | 0% | 0% |  |  |
| CC1=CC[C@@H](C(C)(C)O)CC1 [ALPHA-TERPINEOL] | 100% | 100% | 73.3% | 98.3% | 98.3% | 100% |  |  |
| C=C(C)[C@H]1CC=C(C)CC1 [D-LIMONENE] | 0% | 0% | 0% | 0% | 0% | 0% |  |  |
